# According to ChEMBL document CHEMBL1137861, “Novel pyrazinone inhibitors of mast cell tryptase: synthesis and SAR evaluation” (Bioorg Med Chem Lett, 2004):
# Target: T1, Tryptase beta-1 (Homo sapiens, UniProt Q15661)
# Test: Inhibitory activity against human Tryptase beta 2 expressed in yeast cells at 5 uM
# Assay type: cell-based
# T1 sequence (Q15661 31-275 limits assumed): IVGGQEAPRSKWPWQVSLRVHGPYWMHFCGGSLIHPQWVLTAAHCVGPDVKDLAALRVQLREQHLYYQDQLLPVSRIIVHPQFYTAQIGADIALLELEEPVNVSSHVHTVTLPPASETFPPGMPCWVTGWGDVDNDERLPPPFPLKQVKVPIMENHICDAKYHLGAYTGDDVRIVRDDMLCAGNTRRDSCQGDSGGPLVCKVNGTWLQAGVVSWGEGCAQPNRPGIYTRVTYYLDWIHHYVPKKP
row,Compound,inhibition
1,Cc1c(Cl)nc(N[C@H]2CC[C@H](N)CC2)c(=O)n1CC(=O)NCCc1c[nH]cn1,8%
2,Cc1c(Cl)nc(N[C@H]2CC[C@H](N)CC2)c(=O)n1CC(=O)Nc1cccc(C(N)=O)c1,18%

# Other lines, results leading:
row,inhibition,Compound
1,2%,Cc1c(Cl)nc(N[C@H]2CC[C@H](N)CC2)c(=O)n1CC(=O)NC1CCC(N)CC1 (some centres undefined)
2,29%,Cc1c(Cl)nc(N[C@H]2CC[C@H](N)CC2)c(=O)n1CC(=O)Nc1ccc(N)cc1
3,7%,Cc1c(Cl)nc(N[C@H]2CC[C@H](N)CC2)c(=O)n1CC(=O)Nc1cccc(N)c1
4,31%,Cc1c(Cl)nc(N[C@H]2CC[C@H](N)CC2)c(=O)n1CC(=O)Nc1ccc(C(N)=O)cc1
5,16%,Cc1c(Cl)nc(N[C@H]2CC[C@H](N)CC2)c(=O)n1CC(=O)Nc1ccc(CN)cc1

# Target: T1, Tryptase beta-1
# Test: Inhibitory activity against human Tryptase beta 2 expressed in yeast cells at 5 uM; not active
# Assay type: cell-based
row,inhibition,Compound
1,11%,Cc1c(Cl)nc(Nc2cccc(Cl)c2)c(=O)n1CC(=O)Nc1cccc(CN)c1
2,24%,Cc1c(Cl)nc(Nc2ccc(F)cc2)c(=O)n1CC(=O)Nc1cccc(CN)c1
